Data published in the supplement of paper PMC11451515.

System: SEM cells
Assay: cell viability relative to DMSO control; higher = less cytotoxic
Details: 48 h
Method in brief: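 Viability values are per-plate percentages of DMSO wells, with background from cell-free wells. Library compounds in DMSO were pin-dosed, in an 11-point threefold series from 47 μM to 0.79 nM, onto NOMO1 or SEM (500 cells/well) or P12-Ichikawa (1000 cells/well) leukemia cells in 1536-well plates (5 μl). Those cells had been adapted for at least four passages in each medium, and CellTiter-Glo One luminescence was read after 48 h at 37°C.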

[1] = HPLM + 10% dialyzed FBS, 0.000781 µM
[2] = HPLM + 10% dialyzed FBS, 0.00234 µM
[3] = HPLM + 10% dialyzed FBS, 0.00702 µM
[4] = HPLM + 10% dialyzed FBS, 0.0211 µM
[5] = HPLM + 10% dialyzed FBS, 0.0632 µM
[6] = HPLM + 10% dialyzed FBS, 0.19 µM
[7] = HPLM + 10% dialyzed FBS, 0.569 µM
[8] = HPLM + 10% dialyzed FBS, 1.71 µM
[9] = HPLM + 10% dialyzed FBS, 5.12 µM
[10] = HPLM + 10% dialyzed FBS, 15.4 µM
[11] = HPLM + 10% dialyzed FBS, 46.1 µM
[12] = RPMI 5 mM glucose + 10% FBS, 0.000781 µM
[13] = RPMI 5 mM glucose + 10% FBS, 0.00234 µM
[14] = RPMI 5 mM glucose + 10% FBS, 0.00702 µM
[15] = RPMI 5 mM glucose + 10% FBS, 0.0211 µM
[16] = RPMI 5 mM glucose + 10% FBS, 0.0632 µM
[17] = RPMI 5 mM glucose + 10% FBS, 0.19 µM
[18] = RPMI 5 mM glucose + 10% FBS, 0.569 µM
[19] = RPMI 5 mM glucose + 10% FBS, 1.71 µM
[20] = RPMI 5 mM glucose + 10% FBS, 5.12 µM
[21] = RPMI 5 mM glucose + 10% FBS, 15.4 µM
[22] = RPMI 5 mM glucose + 10% FBS, 46.1 µM
[23] = RPMI 5 mM glucose + 10% dialyzed FBS, 0.000781 µM
[24] = RPMI 5 mM glucose + 10% dialyzed FBS, 0.00234 µM
[25] = RPMI 5 mM glucose + 10% dialyzed FBS, 0.00702 µM
[26] = RPMI 5 mM glucose + 10% dialyzed FBS, 0.0211 µM
[27] = RPMI 5 mM glucose + 10% dialyzed FBS, 0.0632 µM
[28] = RPMI 5 mM glucose + 10% dialyzed FBS, 0.19 µM
[29] = RPMI 5 mM glucose + 10% dialyzed FBS, 0.569 µM
[30] = RPMI 5 mM glucose + 10% dialyzed FBS, 1.71 µM
[31] = RPMI 5 mM glucose + 10% dialyzed FBS, 5.12 µM
[32] = RPMI 5 mM glucose + 10% dialyzed FBS, 15.4 µM
[33] = RPMI 5 mM glucose + 10% dialyzed FBS, 46.1 µM

| SMILES | cell viability [1] [%] | cell viability [2] [%] | cell viability [3] [%] | cell viability [4] [%] | cell viability [5] [%] | cell viability [6] [%] | cell viability [7] [%] | cell viability [8] [%] | cell viability [9] [%] | cell viability [10] [%] | cell viability [11] [%] | cell viability [12] [%] | cell viability [13] [%] | cell viability [14] [%] | cell viability [15] [%] | cell viability [16] [%] | cell viability [17] [%] | cell viability [18] [%] | cell viability [19] [%] | cell viability [20] [%] | cell viability [21] [%] | cell viability [22] [%] | cell viability [23] [%] | cell viability [24] [%] | cell viability [25] [%] | cell viability [26] [%] | cell viability [27] [%] | cell viability [28] [%] | cell viability [29] [%] | cell viability [30] [%] | cell viability [31] [%] | cell viability [32] [%] | cell viability [33] [%] |
| --- | --- | --- | --- | --- | --- | --- | --- | --- | --- | --- | --- | --- | --- | --- | --- | --- | --- | --- | --- | --- | --- | --- | --- | --- | --- | --- | --- | --- | --- | --- | --- | --- | --- |
| Nc1nnc(-c2cccc(Cl)c2Cl)c(N)n1 | 80.7 | 80 | 98.9 | 21.9 | 96.6 | 92.1 | 96.5 | 103 | 105 | 115 | 92.4 | 71.7 | 74.5 | 85.2 | 13.1 | 97.6 | 96.7 | 104 | 99.1 | 99.9 | 90.4 | 89.7 | 88.5 | 88.1 | 88.2 | 16.1 | 92.1 | 97.5 | 103 | 101 | 101 | 107 | 113 |
| CC(C)c1ccc(Cn2ccc3c4c(N)nc(NC5CC5)nc4ccc32)cc1 | 99.5 | 100 | 113 | 100 | 113 | 107 | 67.6 | 53.2 | 37.5 | 31.9 | 6.32 | 107 | 114 | 120 | 80.5 | 106 | 120 | 102 | 110 | 35.5 | 19.5 | 8.49 | 97.7 | 113 | 123 | 80.5 | 125 | 124 | 134 | 119 | 46.7 | 33.3 | 9.93 |
| CN[C@@H](C)C(=O)N[C@H]1CN(C(=O)CC(C)C)CC[C@H]2CC[C@@H](C(=O)NC(c3ccccc3)c3ccccc3)N2C1=O | 76.3 | 90.5 | 98.3 | 100 | 98.1 | 93.7 | 99 | 103 | 99.9 | 71.4 | 41 | 107 | 103 | 105 | 110 | 104 | 102 | 96.7 | 83.5 | 74.2 | 56.5 | 38.5 | 95.5 | 86.1 | 92.8 | 104 | 106 | 97.9 | 102 | 95.1 | 77.7 | 61 | 36.2 |
| CC(/C=C/C(=O)NO)=C\[C@@H](C)C(=O)c1ccc(N(C)C)cc1 | 108 | 126 | 109 | 100 | 111 | 101 | 59 | 8.01 | 3.01 | 2.86 | 2.07 | 112 | 117 | 115 | 97.7 | 115 | 115 | 66.2 | 5.17 | 3.1 | 2.52 | 1.53 | 102 | 112 | 116 | 105 | 106 | 102 | 56.2 | 8.19 | 3.94 | 3.72 | 1.86 |
| COc1ncnc(N[S+](=O)([O-])c2ccc(N)cc2)c1OC | 33.3 | 74 | 64.9 | 77.8 | 96.9 | 75.1 | 77.2 | 46.8 | 11.4 | 5.63 | 6.09 | 46 | 102 | 82.5 | 96.4 | 101 | 88.3 | 59.3 | 44 | 6.03 | 4.36 | 5.06 | 39.2 | 96.9 | 79.2 | 114 | 118 | 92.6 | 86.1 | 50.4 | 17.9 | 8.47 | 8.64 |
| Cn1c(=O)n(-c2ccc(C(C)(C)C#N)cc2)c2c3cc(-c4cnc5ccccc5c4)ccc3ncc21 | 94 | 104 | 96 | 86.7 | 82 | 66.3 | 50.5 | 38.8 | 28.3 | 22.1 | 22.3 | 68 | 56.2 | 64.5 | 64.3 | 46 | 33.6 | 27.7 | 15 | 8.98 | 9.61 | 6.98 | 98.6 | 89 | 89.8 | 86.1 | 65.7 | 57.9 | 51.4 | 35 | 24.2 | 13.2 | 14.4 |
| Cn1cc(/C=C2\C(=O)Nc3cccnc32)c2ccccc21 | 90.8 | 104 | 113 | 117 | 125 | 121 | 115 | 111 | 112 | 44.8 | 30 | 92.5 | 92.5 | 122 | 114 | 99.3 | 105 | 108 | 115 | 98.4 | 31.8 | 21.9 | 105 | 106 | 124 | 101 | 122 | 119 | 114 | 119 | 91.7 | 30.2 | 28 |
| Nc1cc(C(F)(F)F)c(-c2cc(N3CCOCC3)nc(N3CCOCC3)n2)cn1 | 118 | 121 | 99 | 113 | 113 | 88.5 | 72.2 | 43.4 | 14 | 6.54 | 5.09 | 88.9 | 89.2 | 88.1 | 102 | 90 | 64.2 | 75.6 | 27.4 | 6.68 | 3.92 | 2.34 | 113 | 131 | 121 | 123 | 118 | 91.1 | 74.1 | 37.6 | 14.6 | 5.59 | 3.9 |
| Cc1csc(NC(=O)c2sc3nc4c(c(C(F)(F)F)c3c2N)CCC4)n1 | 82 | 96.7 | 93.6 | 81.8 | 108 | 86.6 | 96 | 101 | 81.1 | 70.2 | 89.3 | 82.1 | 99.9 | 89.7 | 107 | 92.2 | 104 | 106 | 97.1 | 84 | 73.1 | 79 | 84.4 | 96.8 | 106 | 80.8 | 92.9 | 99.3 | 89.6 | 97 | 76.6 | 69.9 | 69.9 |
| CNC[C@H](O)c1cccc(O)c1 | 66.9 | 68.9 | 98.8 | 23.9 | 86.8 | 93.1 | 98.1 | 103 | 103 | 101 | 108 | 93 | 55.3 | 100 | 15.4 | 88.7 | 96.7 | 91.7 | 78.1 | 98.2 | 104 | 116 | 89 | 73 | 89.5 | 19.9 | 111 | 98.8 | 101 | 110 | 110 | 98.4 | 111 |
| O=C(c1ccc(F)c(F)c1Nc1ccc(I)cc1F)N1CC(O)([C@@H]2CCCCN2)C1 | 75.2 | 92.2 | 98.2 | 99.8 | 85.4 | 83.6 | 105 | 97 | 69.2 | 71.4 | 60.8 | 98.8 | 88.6 | 100 | 104 | 98.1 | 100 | 92.5 | 99.1 | 77.8 | 71.6 | 55.1 | 82.8 | 96.3 | 97.4 | 111 | 104 | 96.6 | 86.2 | 92.7 | 68.5 | 76.9 | 60.1 |
| COc1ccc2c(c1)c(CC(=O)OCC(=O)O)c(C)n2C(=O)c1ccc(Cl)cc1 | 109 | 114 | 111 | 110 | 112 | 110 | 119 | 102 | 113 | 109 | 106 | 121 | 126 | 121 | 120 | 113 | 111 | 109 | 99.8 | 113 | 98.4 | 102 | 119 | 131 | 123 | 123 | 116 | 116 | 128 | 110 | 112 | 113 | 100 |
| CN1CCC[C@@H]1CCO[C@](C)(c1ccccc1)c1ccc(Cl)cc1 | 85.8 | 96.5 | 102 | 104 | 122 | 108 | 99.1 | 115 | 111 | 104 | 81.4 | 103 | 116 | 118 | 117 | 115 | 115 | 112 | 114 | 124 | 118 | 97.4 | 86.1 | 110 | 107 | 104 | 114 | 121 | 109 | 116 | 115 | 118 | 93 |
| COc1ccc(Nc2nccc(NCCO)n2)cc1 | 61.7 | 67.9 | 61.4 | 75.8 | 81.4 | 69.6 | 63.7 | 78.6 | 64 | 75.4 | 64.7 | 75.9 | 80.1 | 78 | 87.4 | 77.1 | 79 | 78.3 | 85.1 | 42.1 | 91.5 | 92.9 | 64.5 | 65.3 | 73.3 | 95 | 91.8 | 78.6 | 81.4 | 74.7 | 74.1 | 92.5 | 68.2 |
| COC1=CC=CC(=C1N)\C2=C\C(=O)C3=C(O2)C=CC=C3 | 99.8 | 123 | 124 | 130 | 129 | 146 | 140 | 145 | 148 | 145 | 156 | 119 | 112 | 120 | 121 | 136 | 136 | 161 | 143 | 141 | 177 | 144 | 106 | 111 | 134 | 134 | 128 | 136 | 145 | 164 | 149 | 160 | 155 |
